One test concerns the target T1, MET kinase (Homo sapiens, UniProt P08581).
T1 construct: purchased Millipore
In words: MET kinase enzymatic HTRF assay. The format is biochemical. The method, then:
HTRF assay detects the phosphorylation level of a biotinylated tyrosine kinase substrate peptide (TK substrate) by MET kinase. The HTRF® KinEASE™ TK kit and MET kinase were purchased from Cisbio and Millipore, respectively. The optimal conditions for enzyme, substrate, ATP concentrations, and enzymatic reaction times were set.
In order to prepare the test compounds, after dissolving in DMSO, they were diluted in the reaction buffer containing 50 mM HEPES pH 7.0, 0.1 mM sodium orthovanadate, 0.01% BSA, 0.02% NaN3, 10 mM MgCl2, 5 mM MnCl2, 2 mM DTT. […] Finally, the Time Resolved-Fluorescence Resonance Energy Transfer (TR-FRET) signal was measured after an hour of incubation at room temperature.
The following equations were used to determine the inhibition rate (%): Ratio665/620=Emission665 nm/Emission620nm ΔR=Ratio Sample665/620-Ratio Background665/620∗100/Ratio Background665/620 Inhibition%=ΔRControl-ΔRSample∗100/ΔRControl
Background samples contained all reagents except for the enzyme. Control wells contained the same amount of DMSO contained in the sample.

Test [1] deals with AsPC-1 cells. Nature of the test: SRB antiproliferative assay, monolayer culture. The note with it: Homo sapiens, ASPC1, 72 h, mean ± S.E.M. The class given is cell-based, human. As for the experimental part:
(§1) EBC-1 (human lung […] cells with MET gene amplification) and Mia-Paca-2 (human PDAC cells) were obtained from Japanese Collection of Research Bio Resources Cell Bank (JCRB). AsPC-1 (human PDAC), MKN-45 (human gastric adenocarcinoma cells with MET gene amplification), HT-29 (human colorectal adenocarcinoma), and K562 cells (human chronic myelogenous leukemia) were obtained from the Iranian Biological Resource Centre, Tehran, Iran. AsPC-1, EBC-1, MKN-45, and K562 cells were cultured in RPMI 1640 medium containing 10% heat-inactivated fetal bovine serum (FBS) and 1% penicillin/streptomycin. Mia-Paca-2 and HT-29 cells were grown in DMEM low glucose, containing 10% and 20% heat-inactivated FBS, resoectively and 100 U/ml penicillin/streptomycin. All cells were grown in monolayer cultures at 37 °C in a humidified incubator with 5% CO2.
(§2) Antiproliferative effects of synthetic compounds were evaluated by the SRB assay as described previously. Cancer cells were trypsinized, homogenous cell suspensions were prepared and 100 µl of cell suspensions were cultured at the densities of 5 × 10^4 cells/ml (for AsPC-1 and Mia-Paca-2), 4 × 10^4 cells/m (for EBC-1 and MKN-45), 3 × 10^4 cells/ml (for K562) and 1 × 10^4 cells/ml (for HT-29) in 96-well flat-bottom plates. After 24 h of incubation to allow cells to attach and resume optimal growth, the synthetic compounds dissolved in DMSO and diluted in the growth medium were added. One hundred µl of synthesized derivatives were added at different concentrations in triplicate and incubated for an additional 72 h at 37 °C. The cells were then fixed by gentle addition of 50 μl cold trichloroacetic acid (TCA) 50% (w/v, 10% final concentration) and incubated for 60 min at 4 °C. Then, the supernatant was discarded, and the plates were washed four times with distilled water and air dried. Afterwards, 100 μl of SRB solution 0.04% (w/v) dissolved in 1% acetic acid was added to each well, and plates were incubated for 15 min at room temperature. At the next step, the unbound dye was removed by washing four times with 1% acetic acid and the plates were air dried. The bound stain was finally solubilized with 150 μl of 10 mM Tris base solution, and the absorbance was recorded at a wavelength of 540 nm with a Bio-Tek microplate reader (Model Synergy HTX).
(In general: The SRB assay estimates cell density from bound dye.)

A further test deals with EBC-1 cells. Nature of the test: SRB antiproliferative assay, monolayer culture. The following applies: Homo sapiens, EBC-1, 72 h, mean ± S.E.M. The class given is cell-based, human. As for the experimental part:
as §1, §2

Another test deals with HT-29 cells. In words: SRB antiproliferative assay, monolayer culture. The class given is cell-based, human. The following applies: Homo sapiens, HT-29, 72 h, mean ± S.E.M. As for the experimental part: as §1, §2
Another test concerns K562 cells. Nature of the test: SRB antiproliferative assay, monolayer culture. The format is cell-based, human. The following applies: Homo sapiens, K562, 72 h, mean ± S.E.M. The method, then:
as §1, §2

A further test concerns MKN-45 cells. Nature of the test: SRB antiproliferative assay, monolayer culture. The format is cell-based, human. The following applies: Homo sapiens, MKN-45, 72 h, mean ± S.E.M. As for the experimental part:
as §1, §2

The next test has as its system Mia-Paca-2 cells. In words: SRB antiproliferative assay, monolayer culture. The class given is cell-based, human. The following applies: Homo sapiens, MIA PaCa-2, 72 h, mean ± S.E.M. The method, then: as §1, §2
For test [2], the system named is AsPC-1 cells. Nature of the test: Apoptosis induction, annexin V-FITC/PI flow cytometry. The class given is cell-based, human. The following applies: 10 μM, 48 h; for Late apoptosis: untreated 4.8%; for Early apoptosis: untreated 7.6%; for Percentage of total apoptosis: untreated 12.4%. The method, then:
The ability of apoptosis induction of synthetic compounds was evaluated by FACS analysis with Annexin V-FITC/propidiuim iodide (PI) staining kit (BD Pharmingen, San Diego, CA, USA). AsPC-1 cells were cultured in 6-well plates at a density of 1 × 10^5 cells/ml. After 24 h, the synthesized derivatives at different concentrations were added and incubated for 48 h. After addition of trypsin to each well, the cells were harvested, transferred to 1.5 ml tubes and washed twice with PBS. At the final step, the cells were stained with Annexin V-FITC (5 µl) and PI (5 µl), followed by analysis by a FACS Calibur flow cytometer (Becton Dickinson, Mountain View, CA, USA). The effects of synthetic derivatives on the apoptosis rate were evaluated based on the fluorescence signal of 20,000 events.

In another test the target is T2, ABL (h) (Homo sapiens, UniProt P00519).
T2 construct: purchased Eurofins Discovery
In words: Radiometric kinase panel assay. The class given is biochemical. The note with it: Km ATP.

For the next test, the target named is T3, ALK (h) (Homo sapiens, UniProt Q9UM73).
T3 construct: purchased Eurofins Discovery
T3 sequence (Q9UM73 19-1620): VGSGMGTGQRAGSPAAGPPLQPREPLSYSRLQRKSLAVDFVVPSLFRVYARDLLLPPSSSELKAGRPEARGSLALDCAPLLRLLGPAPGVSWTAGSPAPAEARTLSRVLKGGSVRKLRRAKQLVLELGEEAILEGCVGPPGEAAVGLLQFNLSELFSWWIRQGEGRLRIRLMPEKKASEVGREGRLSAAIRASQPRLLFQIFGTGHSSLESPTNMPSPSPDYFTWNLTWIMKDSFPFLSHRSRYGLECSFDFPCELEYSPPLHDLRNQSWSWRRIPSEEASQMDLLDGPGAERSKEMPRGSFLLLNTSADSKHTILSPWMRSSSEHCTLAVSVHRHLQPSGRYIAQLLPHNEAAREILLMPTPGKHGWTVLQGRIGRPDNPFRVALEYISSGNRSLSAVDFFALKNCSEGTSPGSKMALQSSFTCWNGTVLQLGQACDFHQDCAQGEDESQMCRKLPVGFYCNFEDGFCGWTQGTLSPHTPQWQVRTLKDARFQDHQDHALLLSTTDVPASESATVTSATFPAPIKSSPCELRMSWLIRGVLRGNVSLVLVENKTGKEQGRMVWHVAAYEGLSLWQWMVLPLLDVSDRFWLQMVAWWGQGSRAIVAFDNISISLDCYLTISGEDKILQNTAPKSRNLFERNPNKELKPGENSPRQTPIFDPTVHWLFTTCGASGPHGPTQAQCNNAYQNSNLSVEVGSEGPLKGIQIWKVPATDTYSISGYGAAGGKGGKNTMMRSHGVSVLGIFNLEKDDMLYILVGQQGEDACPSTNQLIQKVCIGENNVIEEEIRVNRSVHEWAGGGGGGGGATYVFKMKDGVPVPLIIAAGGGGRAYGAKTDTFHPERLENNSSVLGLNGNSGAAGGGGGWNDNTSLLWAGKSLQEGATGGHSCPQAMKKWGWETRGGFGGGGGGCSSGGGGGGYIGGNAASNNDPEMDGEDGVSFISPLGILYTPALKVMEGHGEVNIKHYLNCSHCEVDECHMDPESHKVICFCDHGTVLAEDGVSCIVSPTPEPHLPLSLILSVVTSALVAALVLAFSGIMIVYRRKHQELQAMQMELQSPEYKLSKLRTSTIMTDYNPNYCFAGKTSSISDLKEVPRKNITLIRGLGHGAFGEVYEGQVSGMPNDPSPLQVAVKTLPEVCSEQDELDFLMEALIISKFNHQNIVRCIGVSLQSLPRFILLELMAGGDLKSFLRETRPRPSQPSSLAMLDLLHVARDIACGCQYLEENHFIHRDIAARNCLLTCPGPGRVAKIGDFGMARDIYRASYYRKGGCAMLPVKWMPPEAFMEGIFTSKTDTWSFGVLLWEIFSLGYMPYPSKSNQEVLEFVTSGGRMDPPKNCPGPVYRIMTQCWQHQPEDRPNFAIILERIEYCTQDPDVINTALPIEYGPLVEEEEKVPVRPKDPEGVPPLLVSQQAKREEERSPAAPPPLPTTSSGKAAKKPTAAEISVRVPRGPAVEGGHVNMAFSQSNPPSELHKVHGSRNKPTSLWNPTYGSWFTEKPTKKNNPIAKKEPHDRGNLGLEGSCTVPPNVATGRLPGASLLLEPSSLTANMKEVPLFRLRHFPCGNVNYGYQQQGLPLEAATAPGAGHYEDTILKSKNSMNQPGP
Nature of the test: Radiometric kinase panel assay. The format is biochemical. The note with it: Km ATP.

Another test addresses T4, FLT3 (h) (Homo sapiens, UniProt P36888).
T4 construct: purchased Eurofins Discovery
In words: Radiometric kinase panel assay. The following applies: Km ATP. The format is biochemical.

Another test deals with T5, PDGFRA (h) (Homo sapiens, UniProt P16234).
T5 construct: purchased Eurofins Discovery
T5 sequence (P16234 24-1089): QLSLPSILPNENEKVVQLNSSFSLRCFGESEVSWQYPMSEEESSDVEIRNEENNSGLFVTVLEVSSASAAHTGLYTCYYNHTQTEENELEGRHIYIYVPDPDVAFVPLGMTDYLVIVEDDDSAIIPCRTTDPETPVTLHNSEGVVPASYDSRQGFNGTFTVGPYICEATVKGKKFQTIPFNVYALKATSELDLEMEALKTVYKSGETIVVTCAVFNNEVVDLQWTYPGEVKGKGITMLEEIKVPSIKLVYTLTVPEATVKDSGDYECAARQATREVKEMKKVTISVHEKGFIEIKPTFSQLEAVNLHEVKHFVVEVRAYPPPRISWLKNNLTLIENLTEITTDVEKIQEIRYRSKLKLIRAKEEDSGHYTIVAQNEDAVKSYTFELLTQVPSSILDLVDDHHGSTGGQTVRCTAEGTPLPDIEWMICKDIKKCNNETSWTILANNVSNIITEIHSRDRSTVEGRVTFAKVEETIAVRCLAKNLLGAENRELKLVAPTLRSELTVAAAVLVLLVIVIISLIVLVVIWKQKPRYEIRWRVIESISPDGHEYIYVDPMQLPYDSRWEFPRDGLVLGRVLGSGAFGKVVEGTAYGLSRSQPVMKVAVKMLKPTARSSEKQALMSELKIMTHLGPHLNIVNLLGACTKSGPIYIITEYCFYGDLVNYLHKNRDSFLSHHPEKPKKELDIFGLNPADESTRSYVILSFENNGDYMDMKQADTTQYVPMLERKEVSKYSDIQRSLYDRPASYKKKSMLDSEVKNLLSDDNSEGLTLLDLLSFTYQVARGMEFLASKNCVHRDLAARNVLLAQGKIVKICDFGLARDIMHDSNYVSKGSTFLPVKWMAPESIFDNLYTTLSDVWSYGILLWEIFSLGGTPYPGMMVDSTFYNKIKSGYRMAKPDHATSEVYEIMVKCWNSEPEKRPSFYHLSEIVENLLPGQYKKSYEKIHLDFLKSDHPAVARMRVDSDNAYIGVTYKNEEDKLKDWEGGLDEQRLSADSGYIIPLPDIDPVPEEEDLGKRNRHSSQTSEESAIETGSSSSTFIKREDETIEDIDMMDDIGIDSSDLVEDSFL
Nature of the test: Radiometric kinase panel assay and dose-response. The following applies: for inhibition at 10 µM: radiometric assay, Km ATP. The format is biochemical. As for the experimental part:
Moreover, a dose–response analysis was performed at six concentrations to determine the activity of compound 8c against PDGFRA kinase, and IC50 value was estimated by curve fitting. The tests were performed by Eurofins Discovery (https://www.eurofinsdiscovery.com).

T1 sequence (P08581 25-1390): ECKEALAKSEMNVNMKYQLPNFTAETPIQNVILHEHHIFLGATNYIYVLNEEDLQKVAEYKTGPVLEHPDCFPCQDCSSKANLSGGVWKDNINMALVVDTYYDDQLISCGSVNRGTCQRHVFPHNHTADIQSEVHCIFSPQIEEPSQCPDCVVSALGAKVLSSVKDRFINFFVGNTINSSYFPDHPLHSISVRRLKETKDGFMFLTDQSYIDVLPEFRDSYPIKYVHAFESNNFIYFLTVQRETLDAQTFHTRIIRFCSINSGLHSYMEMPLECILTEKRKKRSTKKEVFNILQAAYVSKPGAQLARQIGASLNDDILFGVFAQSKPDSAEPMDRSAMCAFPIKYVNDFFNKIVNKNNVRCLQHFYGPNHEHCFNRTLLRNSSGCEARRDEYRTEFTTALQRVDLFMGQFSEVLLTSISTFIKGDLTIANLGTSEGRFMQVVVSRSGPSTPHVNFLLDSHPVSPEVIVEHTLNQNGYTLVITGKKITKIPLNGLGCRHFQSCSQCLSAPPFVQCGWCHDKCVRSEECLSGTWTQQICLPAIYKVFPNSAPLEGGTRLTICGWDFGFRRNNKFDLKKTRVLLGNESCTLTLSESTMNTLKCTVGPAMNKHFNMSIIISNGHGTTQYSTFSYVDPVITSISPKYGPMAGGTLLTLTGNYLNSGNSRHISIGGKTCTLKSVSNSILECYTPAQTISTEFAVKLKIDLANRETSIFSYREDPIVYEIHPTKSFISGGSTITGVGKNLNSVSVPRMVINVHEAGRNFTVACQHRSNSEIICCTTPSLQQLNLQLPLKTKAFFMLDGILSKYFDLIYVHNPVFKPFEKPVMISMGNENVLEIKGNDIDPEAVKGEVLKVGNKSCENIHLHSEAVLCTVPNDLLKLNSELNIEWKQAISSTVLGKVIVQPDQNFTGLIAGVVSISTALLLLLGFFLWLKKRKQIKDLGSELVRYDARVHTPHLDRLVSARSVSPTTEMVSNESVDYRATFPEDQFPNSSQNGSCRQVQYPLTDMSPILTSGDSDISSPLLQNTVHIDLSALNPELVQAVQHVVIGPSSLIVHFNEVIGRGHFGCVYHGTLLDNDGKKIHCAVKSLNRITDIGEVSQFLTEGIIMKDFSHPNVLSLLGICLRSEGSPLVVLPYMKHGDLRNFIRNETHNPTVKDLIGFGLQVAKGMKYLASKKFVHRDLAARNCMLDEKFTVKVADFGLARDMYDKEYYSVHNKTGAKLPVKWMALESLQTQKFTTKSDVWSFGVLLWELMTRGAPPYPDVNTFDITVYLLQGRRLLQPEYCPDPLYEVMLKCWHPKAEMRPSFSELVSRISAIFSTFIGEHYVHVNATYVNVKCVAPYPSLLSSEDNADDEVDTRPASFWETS
T4 sequence (P36888 27-993): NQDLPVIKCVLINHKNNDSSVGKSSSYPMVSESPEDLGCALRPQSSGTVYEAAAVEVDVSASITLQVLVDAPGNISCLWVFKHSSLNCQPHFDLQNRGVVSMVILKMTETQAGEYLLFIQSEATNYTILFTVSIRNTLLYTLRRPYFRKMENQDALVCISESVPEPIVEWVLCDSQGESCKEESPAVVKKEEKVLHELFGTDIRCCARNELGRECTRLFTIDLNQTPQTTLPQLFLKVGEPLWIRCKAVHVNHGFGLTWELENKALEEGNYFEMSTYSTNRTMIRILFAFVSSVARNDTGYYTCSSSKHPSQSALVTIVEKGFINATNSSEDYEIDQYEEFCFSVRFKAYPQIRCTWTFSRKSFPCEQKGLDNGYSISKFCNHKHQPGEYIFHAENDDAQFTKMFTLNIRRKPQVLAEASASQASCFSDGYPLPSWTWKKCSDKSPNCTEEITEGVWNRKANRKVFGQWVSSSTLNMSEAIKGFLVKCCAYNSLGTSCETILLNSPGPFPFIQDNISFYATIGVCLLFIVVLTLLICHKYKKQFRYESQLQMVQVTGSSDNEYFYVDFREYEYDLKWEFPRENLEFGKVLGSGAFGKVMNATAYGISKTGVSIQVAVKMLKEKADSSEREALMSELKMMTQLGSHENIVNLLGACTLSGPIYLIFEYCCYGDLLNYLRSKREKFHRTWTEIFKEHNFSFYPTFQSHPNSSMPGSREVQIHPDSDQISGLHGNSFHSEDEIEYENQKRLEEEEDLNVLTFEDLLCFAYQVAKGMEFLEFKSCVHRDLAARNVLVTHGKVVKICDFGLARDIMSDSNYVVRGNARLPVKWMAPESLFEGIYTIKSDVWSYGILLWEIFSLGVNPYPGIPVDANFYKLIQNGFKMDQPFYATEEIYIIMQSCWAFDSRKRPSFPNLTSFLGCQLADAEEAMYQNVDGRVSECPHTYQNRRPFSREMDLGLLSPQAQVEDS

For `Cc1ccc(Cn2cc(COc3ccc(C=NNc4ncnc5ccccc45)cc3)nn2)cc1` [Compound 8c, 2-(4-((1-(4-Methylbenzyl)-1H-1,2,3-triazol-4-yl)methoxy)benzylidene)-1-(quinazolin-4-yl)hydrazine], the IC50 – broadly, the midpoint of a concentration-inhibition curve – on MET kinase (HTRF assay, read-out: MET kinase inhibition IC50) was 36 ± 9.5 µM; in the test with AsPC-1 cells [1], 15.3 ± 2.3 µM; in the test with EBC-1 cells it was 19 ± 0.7 µM; with HT-29 cells, 21 ± 4.7 µM; in the test on K562 cells it was 31.5 ± 6.4 µM; with MKN-45 cells, 22 ± 4.8 µM. For the same compound, the IC50 in the test with Mia-Paca-2 cells worked out at 25.6 ± 2.4 µM; at PDGFRA (h) (dose-response at six concentrations, curve fitting, read-out: PDGFRA kinase inhibition IC50), 7.1 µM. For the same compound, the Late apoptosis in the test with AsPC-1 cells [2] was determined as 10.7%. Further, the Early apoptosis in the test with AsPC-1 cells [2] came to 15.5%. In addition, the “Percentage of total apoptosis” value with AsPC-1 cells [2] worked out at 26.1%. In addition, the inhibition at 10 µM at ABL (h) was determined as 8%; on ALK (h), 3%; against FLT3 (h) it was 8%; at PDGFRA (h), 58%.
With `CC(C)(C)c1ccc(Cn2cc(COc3ccc(C=NNc4ncnc5ccccc45)cc3)nn2)cc1` [Compound 8h, 2-(4-((1-(4-Tert-butylbenzyl)-1H-1,2,3-triazol-4-yl)methoxy)benzylidene)-1-(quinazolin-4-yl)hydrazine], the inhibition at 10 µM came to 22 ± 7.4% at MET kinase (at 10 μM, mean ± S.E.M., read-out: Inhibitory effect against MET kinase); 17% against ABL (h); 14% on ALK (h); 18% against FLT3 (h); 46% at PDGFRA (h). Also, the inhibition at 25 µM at MET kinase (at 25 μM, mean ± S.E.M., read-out: Inhibitory effect against MET kinase) was 25.7 ± 4.7%. Moreover, the inhibition at 50 µM at MET kinase (at 50 μM, mean ± S.E.M., read-out: Inhibitory effect against MET kinase) turned out to be 32.9 ± 2.2%. Also, the IC50 in the test with AsPC-1 cells [1] was determined as 9.7 ± 1.9 µM; with EBC-1 cells it was 6.1 ± 1 µM; in the test on HT-29 cells, 8.6 ± 1.3 µM; in the test with K562 cells it was 34.4 ± 6.4 µM; in the test with MKN-45 cells, 12 ± 3.9 µM; in the test on Mia-Paca-2 cells, 11.5 ± 0.8 µM. The same compound displayed a Late apoptosis with AsPC-1 cells [2] of 9.6%. For the same compound, the Early apoptosis in the test with AsPC-1 cells [2] was found to be 15.8%. Further, the “Percentage of total apoptosis” value in the test with AsPC-1 cells [2] is 25.4%.

For the origin of these results see publication PMC10482942, “Novel quinazoline-1,2,3-triazole hybrids with anticancer and MET kinase targeting properties” (Scientific Reports, 2023).
